Experimental data as given in ChEMBL document CHEMBL1201862, “PubChem BioAssay data set” (2004).
Activity calls are given as the source filed them.

Experiments:
[1] = system: Streptococcus sp. 'group A'; assay: growth inhibition of control SK(-) GAS strain, dose response, counter-screen for streptokinase expression inhibitor project, luminescence, kanamycin, BacTiterGlo, confirmation (AID 1900); assay type: functional, organism-based
Trypsin = Trypsin (Sus scrofa, UniProt P00761); assay: porcine trypsin inhibitors, dose response, selectivity assay for Rce1 protease inhibitor project, biochemical, quenched peptide fluorescence, cherry-pick (AID 488789)
Chain of Trypsin (P00761 whole entry): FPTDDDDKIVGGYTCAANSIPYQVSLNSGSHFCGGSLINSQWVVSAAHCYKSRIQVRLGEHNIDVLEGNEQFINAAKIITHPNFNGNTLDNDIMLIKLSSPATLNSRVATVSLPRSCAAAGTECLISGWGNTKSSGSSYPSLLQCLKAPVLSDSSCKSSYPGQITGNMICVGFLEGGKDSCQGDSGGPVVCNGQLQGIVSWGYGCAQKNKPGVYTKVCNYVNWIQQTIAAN

CAAX prenyl protease 2 [2] = biological target: T1, CAAX prenyl protease 2 (Homo sapiens, UniProt Q9Y256); assay: human Rce1 protease inhibitors, dose response, biochemical, yeast membranes, quenched-peptide fluorescence, cherry-pick (AID 588849)
T1 sequence (Q9Y256 whole entry): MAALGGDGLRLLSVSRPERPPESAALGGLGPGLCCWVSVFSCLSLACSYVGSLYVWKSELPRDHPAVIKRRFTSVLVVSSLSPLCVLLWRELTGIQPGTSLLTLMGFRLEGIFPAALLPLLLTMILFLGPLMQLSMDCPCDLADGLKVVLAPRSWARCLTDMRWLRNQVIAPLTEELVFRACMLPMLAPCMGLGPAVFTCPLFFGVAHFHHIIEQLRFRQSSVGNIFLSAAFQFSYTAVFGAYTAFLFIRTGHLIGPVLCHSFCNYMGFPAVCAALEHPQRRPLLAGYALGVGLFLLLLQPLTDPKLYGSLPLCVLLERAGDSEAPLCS

Streptococcus = assay: Group A Streptococcus viability loss, dose response, counter-screen for streptokinase expression inhibitor project, luminescence, BacTiterGlo (AID 1915); assay type: functional, organism-based;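 further: potency for reduction of bacterial viability or growth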
Streptokinase A = biological target: T2, Streptokinase A (Streptococcus pyogenes serotype M1, UniProt P10520); assay: S. pyogenes streptokinase expression inhibitors, potency, dose response, plasminogen activation absorbance, OD405 (AID 1914); assay type: functional, Streptococcus pyogenes M1 GAS;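 further: secreted streptokinase activity via plasminogen activation per viability signal from cell pellet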
T2 sequence (P10520 whole entry): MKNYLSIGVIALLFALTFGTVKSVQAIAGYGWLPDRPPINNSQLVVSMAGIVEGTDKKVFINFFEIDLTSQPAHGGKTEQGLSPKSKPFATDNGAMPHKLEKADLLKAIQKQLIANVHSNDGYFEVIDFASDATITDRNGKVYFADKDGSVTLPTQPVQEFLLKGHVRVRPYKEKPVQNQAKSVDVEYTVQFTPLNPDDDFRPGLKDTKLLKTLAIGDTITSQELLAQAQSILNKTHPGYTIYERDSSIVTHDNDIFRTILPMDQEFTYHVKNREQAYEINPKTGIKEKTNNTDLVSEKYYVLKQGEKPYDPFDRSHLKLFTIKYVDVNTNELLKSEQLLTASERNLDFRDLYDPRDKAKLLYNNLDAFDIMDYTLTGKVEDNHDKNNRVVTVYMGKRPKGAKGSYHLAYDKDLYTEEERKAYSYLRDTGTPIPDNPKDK

[3] = HEp-2 cell cytotoxicity, dose response, cytotoxicity control for RSV inhibitor project, HTS (AID 2410); assay type: functional; conditions: human respiratory syncytial virus
CAAX prenyl protease 2 [4] = biological target: T3, CAAX prenyl protease 2 (Saccharomyces cerevisiae S288c, UniProt Q03530); assay type: biochemical
T3 sequence (Q03530 whole entry): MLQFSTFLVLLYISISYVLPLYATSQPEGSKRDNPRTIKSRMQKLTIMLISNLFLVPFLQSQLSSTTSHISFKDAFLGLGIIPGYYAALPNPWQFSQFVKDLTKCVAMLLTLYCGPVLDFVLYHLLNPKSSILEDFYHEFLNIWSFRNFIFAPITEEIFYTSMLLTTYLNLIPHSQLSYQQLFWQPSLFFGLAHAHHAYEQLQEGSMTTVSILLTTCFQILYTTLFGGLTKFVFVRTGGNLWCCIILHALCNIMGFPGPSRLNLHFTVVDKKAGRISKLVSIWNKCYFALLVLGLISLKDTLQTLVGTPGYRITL

[5] = Luminescence-based counterscreen assay for KLF5 inhibitors: dose response cell-based high throughput screening assay to identify cytotoxic compounds using the IEC-6 intestinal epithelial cell line. [Related pubchem assays: 1700 (Primary screen.), 1834 (Confirmation screen.), 1858 (Summary AID.), 1905 (Counterscreen.)]; assay type: functional
INS1 = assay: beta cell apoptosis inhibitors, cytokine rescue, dose response, luminescence, retest (AID 449756); assay type: functional, cell-based; conditions: Rattus norvegicus, INS1;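 further: cell death triggered by IL-1 beta plus TNF-alpha plus IFN-gamma mixture; protective hits raise ATP signal compared with cytokine alone wells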
Nonstructural protein 1 = Nonstructural protein 1 (Influenza A virus, UniProt Q194T2); assay type: functional, Influenza A virus (A/California/07/2009(H1N1))
Chain of Nonstructural protein 1 (Q194T2 whole entry): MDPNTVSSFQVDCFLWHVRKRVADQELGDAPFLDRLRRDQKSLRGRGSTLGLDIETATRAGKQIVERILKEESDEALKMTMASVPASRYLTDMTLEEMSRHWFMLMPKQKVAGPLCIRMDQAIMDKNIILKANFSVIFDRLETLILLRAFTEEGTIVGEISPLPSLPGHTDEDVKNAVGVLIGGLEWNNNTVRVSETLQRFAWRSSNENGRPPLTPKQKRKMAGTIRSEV

[6] = biological target: T4, Latent membrane protein 1 (Human herpesvirus 4 (strain B95-8), UniProt P03230); assay: TES1-eGFP NF-kB reporter inhibition versus Tet-On dsRED, dose response, selectivity assay for LMP1 NF-kB inhibitor project, imaging, HEK293T, dual-color eGFP/dsRED, cherry-picks (AID 588398); assay type: functional, cell-based
T4 sequence (P03230 whole entry): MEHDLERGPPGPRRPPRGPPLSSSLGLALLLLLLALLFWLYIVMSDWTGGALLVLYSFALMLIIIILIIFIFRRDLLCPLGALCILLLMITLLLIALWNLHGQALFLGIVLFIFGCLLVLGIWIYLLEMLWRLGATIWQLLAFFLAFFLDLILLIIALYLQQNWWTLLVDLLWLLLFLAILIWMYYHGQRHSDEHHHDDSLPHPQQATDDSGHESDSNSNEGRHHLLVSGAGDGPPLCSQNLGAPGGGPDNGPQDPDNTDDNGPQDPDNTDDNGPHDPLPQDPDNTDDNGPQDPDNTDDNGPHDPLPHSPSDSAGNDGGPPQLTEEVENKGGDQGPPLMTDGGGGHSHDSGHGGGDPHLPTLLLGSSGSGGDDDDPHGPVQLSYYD

HEK293 [7] = assay: inhibitors of LMP1-driven NF-kB reporter, dose response, cell-based, HEK293, luciferase, cherry-pick (AID 588343); assay type: functional; conditions: Homo sapiens
[8] = biological target: T5, Rac GTPase-activating protein 1 (Homo sapiens, UniProt Q9H0H5); assay: MgcRacGAP GTPase-activating activity inhibitors, confirmation, biochemical, ADP Hunter fluorescence, primary and confirmatory (AID 624330); assay type: functional
T5 sequence (Q9H0H5 whole entry): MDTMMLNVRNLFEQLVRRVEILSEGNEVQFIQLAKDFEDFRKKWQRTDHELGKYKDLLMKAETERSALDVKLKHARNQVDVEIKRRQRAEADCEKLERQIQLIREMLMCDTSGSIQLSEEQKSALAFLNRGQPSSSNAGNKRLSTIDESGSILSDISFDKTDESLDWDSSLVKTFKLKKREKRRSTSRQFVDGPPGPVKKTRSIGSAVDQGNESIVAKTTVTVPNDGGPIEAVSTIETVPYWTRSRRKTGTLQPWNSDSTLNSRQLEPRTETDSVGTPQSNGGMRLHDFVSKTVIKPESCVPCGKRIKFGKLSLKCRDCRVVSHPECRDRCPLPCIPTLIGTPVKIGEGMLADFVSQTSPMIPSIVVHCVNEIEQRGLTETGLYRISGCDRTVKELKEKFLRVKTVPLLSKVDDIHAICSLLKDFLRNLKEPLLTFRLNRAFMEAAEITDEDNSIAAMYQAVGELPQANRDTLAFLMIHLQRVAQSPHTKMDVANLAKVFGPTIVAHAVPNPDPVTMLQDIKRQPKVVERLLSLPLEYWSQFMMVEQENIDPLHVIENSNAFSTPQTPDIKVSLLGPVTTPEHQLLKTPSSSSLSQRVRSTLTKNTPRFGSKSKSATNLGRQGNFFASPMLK

[9] = biological target: T6, Microphthalmia-associated transcription factor (Homo sapiens, UniProt O75030); assay: TRPM1 promoter luciferase signal decrease, dose response, MITF inhibitor project, cell-based, SK-MEL-5, cherry-picked, set 3 (AID 493073); assay type: functional
T6 sequence (O75030 whole entry): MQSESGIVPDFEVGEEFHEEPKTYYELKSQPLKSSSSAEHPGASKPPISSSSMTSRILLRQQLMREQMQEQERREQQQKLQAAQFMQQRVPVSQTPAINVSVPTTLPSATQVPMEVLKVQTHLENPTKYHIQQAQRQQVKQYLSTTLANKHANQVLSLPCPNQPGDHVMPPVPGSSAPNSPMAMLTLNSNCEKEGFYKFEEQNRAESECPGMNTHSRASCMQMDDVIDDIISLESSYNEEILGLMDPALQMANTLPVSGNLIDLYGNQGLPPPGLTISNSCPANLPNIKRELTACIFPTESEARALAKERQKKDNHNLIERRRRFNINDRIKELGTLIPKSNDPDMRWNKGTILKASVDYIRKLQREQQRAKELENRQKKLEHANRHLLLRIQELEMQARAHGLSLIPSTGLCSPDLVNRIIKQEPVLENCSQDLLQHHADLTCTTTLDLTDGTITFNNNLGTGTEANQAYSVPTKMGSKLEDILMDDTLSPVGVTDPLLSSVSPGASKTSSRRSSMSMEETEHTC

[10] = Fluorescence-based cell-based high throughput dose response assay for inhibitors of the interaction of nucleotide-binding oligomerization domain containing 2 (NOD2) and the receptor-interacting serine-threonine kinase 2 (RIPK2).; assay type: functional; conditions: Homo sapiens
HEK293 [11] = assay: NOD1 signaling inhibitors, primary screen, cell-based, luminescence, uHTS (AID 1578); assay type: functional; conditions: Homo sapiens
HEK293 [12] = assay: cells; assay type: functional, cell-based; conditions: Homo sapiens
[13] = inhibitors of SNCA 5'UTR-driven reporter translation, confirmation, H4 neuroglioma cells, luminescence (AID 1988); assay type: functional, cell-based
HEK293 [14] = assay: cells; assay type: functional, cell-based; conditions: Homo sapiens; remark: listed apart in the source
HEK293 [15] = assay: NOD2 signaling inhibitors in MDP-stimulated cells, cell-based, uHTS, luminescence (AID 2001); assay type: functional; conditions: Homo sapiens
[16] = MC4R antagonists, dose response, counter-screen for LGR2 antagonist project, cell-based, plate reader, cherry pick (AID 743444); assay type: functional;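 further: transfected HEK 293 cells stimulated with alpha-MSH peptide; potency of inhibitors of the alpha-MSH evoked signal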
[17] = Luminescence Cell-Based Dose Response HTS to Identify Inhibitors of 5'UTR Stem-Loop Driven Prion Protein mRNA Translation in H4 Neuroglioblastoma Cells. [Related pubchem assays: 1827 (Project Summary), 1813 (Primary HTS)]; assay type: functional
[18] = inhibitors of firefly luciferase expression or activity, dose response, H4 neuroglioma cells, luminescence (AID 1990); assay type: functional, cell-based
[19] = LGR2 antagonists, dose response, cell-based, HEK293, CRE-luciferase reporter, cherry pick, set 2 (AID 743343); assay type: functional;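 further: transfected cells were stimulated with diluted bursicon conditioned medium after compound addition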

COc1cc(-c2c(C#N)c(N)nc3c2c(C)nn3-c2ccc(C)c(C)c2)cc(OC)c1OC
EC50 [1]: 5.69 µM (active)
IC50 (cells): 31.8 µM (active)
AC50 (Trypsin): 16.1 µM (active)
AC50 (CAAX prenyl protease 2 [2]): 11.2 µM (active)
EC50 (Streptococcus): 36.4 µM (active)
EC50 (Streptokinase A): > 150 µM (not active)
CC50 [3]: 22.1 µM (active)

O=C(c1ccc(Cn2cnnn2)cc1)N1CCCC(Nc2ccc(F)cc2)C1 (stereo not given)
AC50 (Trypsin): 5.79 µM (active)
AC50 (CAAX prenyl protease 2 [2]): 22.6 µM (active)
AC50 (CAAX prenyl protease 2 [4]): 5.9 µM (active)

O=C(N/N=C/c1cc(Cl)ccc1O)c1cccnc1
EC50 [1]: 1.81 µM (active)
IC50 [5]: > 1.48 µM (active)
EC50 (Streptococcus): 7.97 µM (active)
AC50 (INS1): 1.71 µM (active)
IC50 (Nonstructural protein 1): 5.8 µM (active)
AC50 [6]: 128 µM (active)

CCN(CC)CCC(=O)N1C/C(=C/c2ccccc2)C(=O)/C(=C\c2ccccc2)C1
AC50 (HEK293 [7]): 4.89 µM (active)
IC50 [8]: 111 µM (active)
AC50 [9]: 4.72 µM (active)
IC50 [10]: 3.5 µM (active)

O=C1OCCC1Sc1nnc(-c2ccc(Cl)cc2Cl)o1 (stereo not given)
EC50 (HEK293 [11]): 6.32 µM (active)
IC50 (HEK293 [12]): 6.93 µM (active)
EC50 [13]: 8.84 µM (active)
AC50 (HEK293 [7]): 7.18 µM (active)
IC50 (HEK293 [14]): > 20 µM (inactive)
IC50 (HEK293 [15]): 13 µM (inactive)
AC50 [16]: 9.84 µM (active)
EC50 [17]: 9.97 µM (active)
EC50 [18]: 7.77 µM (active)
AC50 [19]: 9.34 µM (active)
